# Experiments:
# [1] = molecular target: T1, 5-HT3 (Homo sapiens, UniProt P46098); test: Competitive radioligand binding (NIMH PDSP)
# T1 sequence (P46098 24-478): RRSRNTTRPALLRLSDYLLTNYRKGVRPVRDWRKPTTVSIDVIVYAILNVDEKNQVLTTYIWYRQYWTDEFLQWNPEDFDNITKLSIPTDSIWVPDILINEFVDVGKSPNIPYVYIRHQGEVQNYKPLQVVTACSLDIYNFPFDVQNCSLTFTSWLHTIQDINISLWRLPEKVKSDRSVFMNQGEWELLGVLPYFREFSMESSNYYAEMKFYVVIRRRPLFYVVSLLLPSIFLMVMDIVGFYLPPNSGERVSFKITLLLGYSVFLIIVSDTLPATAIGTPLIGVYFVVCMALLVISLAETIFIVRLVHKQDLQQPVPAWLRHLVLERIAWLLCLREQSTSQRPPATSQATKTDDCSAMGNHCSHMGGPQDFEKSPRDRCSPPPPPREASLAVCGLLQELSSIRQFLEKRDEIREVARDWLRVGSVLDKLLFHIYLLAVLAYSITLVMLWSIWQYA
# Description: (§1) Method 1: Competitive binding experiments were performed by the National Institute of Mental Health Psychoactive Drug Screening Program (NIMH PDSP) using described methods or 5-HT2A experiments performed using [3H]-ketanserin displacement in human 5-HT2A expressing membranes. Target compounds were dissolved in DMSO and an initial screen performed to assess displacement of the radioligand from target receptors at a concentration of 10,000 nM. […] For the Ki experiments, compounds were always tested in triplicate on separate plates. Each plate also contained a known ligand for the receptor as a positive control.
# [2] = molecular target: 5-HT7 (Homo sapiens, UniProt P34969); test: Competitive radioligand binding (NIMH PDSP)
# Description: as §1
# [3] = molecular target: 5-HT1B (Homo sapiens, UniProt P28222); test: Competitive radioligand binding (NIMH PDSP)
# Description: as §1
# [4] = molecular target: T2, 5-HT2A (Homo sapiens, UniProt P28223); test: Competitive radioligand binding (NIMH PDSP)
# Description: as §1
# [5] = molecular target: T3, 5-HT1A (Homo sapiens, UniProt P08908); test: Competitive radioligand binding (NIMH PDSP)
# T3 sequence (P08908 1-422): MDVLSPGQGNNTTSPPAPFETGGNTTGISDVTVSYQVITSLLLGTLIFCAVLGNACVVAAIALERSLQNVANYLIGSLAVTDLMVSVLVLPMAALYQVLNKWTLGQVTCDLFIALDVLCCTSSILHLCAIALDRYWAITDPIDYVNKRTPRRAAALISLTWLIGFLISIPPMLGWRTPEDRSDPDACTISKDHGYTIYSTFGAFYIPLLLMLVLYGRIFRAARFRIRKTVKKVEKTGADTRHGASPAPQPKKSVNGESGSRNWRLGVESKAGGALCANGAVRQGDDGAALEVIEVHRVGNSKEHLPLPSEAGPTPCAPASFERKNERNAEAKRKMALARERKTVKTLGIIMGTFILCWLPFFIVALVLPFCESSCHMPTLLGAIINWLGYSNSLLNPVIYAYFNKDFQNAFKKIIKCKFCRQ
# Description: as §1
# [6] = molecular target: 5-HT1D (Homo sapiens, UniProt P28221); test: Competitive radioligand binding (NIMH PDSP)
# Description: as §1
# [7] = molecular target: 5-HT5a (Homo sapiens, UniProt P47898); test: Competitive radioligand binding (NIMH PDSP)
# Description: as §1
# [8] = molecular target: 5-HT1e (Homo sapiens, UniProt P28566); test: Competitive radioligand binding (NIMH PDSP)
# Description: as §1
# [9] = molecular target: 5-HT6 (Homo sapiens, UniProt P50406); test: Competitive radioligand binding (NIMH PDSP)
# Description: as §1
# [10] = molecular target: T4, 5-HT2C (Homo sapiens, UniProt P28335); test: Ca2+ flux assay, 5-HT2C; assay type: cell-based; design: expressed in transfected cells
# T4 sequence (P28335 33-458): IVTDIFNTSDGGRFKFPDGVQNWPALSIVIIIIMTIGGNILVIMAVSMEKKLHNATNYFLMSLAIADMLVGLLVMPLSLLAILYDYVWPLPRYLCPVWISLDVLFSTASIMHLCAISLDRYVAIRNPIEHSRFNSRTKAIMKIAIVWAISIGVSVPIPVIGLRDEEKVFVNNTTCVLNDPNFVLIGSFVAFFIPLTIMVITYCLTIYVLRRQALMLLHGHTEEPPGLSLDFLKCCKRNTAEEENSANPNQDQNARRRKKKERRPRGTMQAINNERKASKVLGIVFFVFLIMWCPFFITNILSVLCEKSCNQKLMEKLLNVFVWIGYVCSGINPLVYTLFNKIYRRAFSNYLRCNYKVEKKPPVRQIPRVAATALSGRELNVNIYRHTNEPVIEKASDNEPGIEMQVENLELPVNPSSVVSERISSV
# [11] = system: 5-HT2A; test: Ca2+ flux assay, 5-HT2A; assay type: cell-based, human; conditions: Gq/11 Ca2+ mobilization; higher number = skewed towards 5-HT2A
# [12] = molecular target: T2, 5-HT2A; test: Ca2+ flux assay, 5-HT2A; assay type: cell-based; design: expressed in transfected cells
# [13] = molecular target: T5, 5-HT2B (Homo sapiens, UniProt P41595); test: Ca2+ flux assay, 5-HT2B; assay type: cell-based; design: expressed in transfected cells; conditions: Ca2+ flux
# [14] = molecular target: T4, 5-HT2C; test: Competitive radioligand binding (NIMH PDSP); design: expressed in transfected cells
# Description: as §1
# [15] = molecular target: T5, 5-HT2B; test: Competitive radioligand binding (NIMH PDSP); design: expressed in transfected cells
# Description: as §1
# [16] = molecular target: T2, 5-HT2A; test: [3H]-ketanserin displacement, 5-HT2A membranes; assay type: binding; design: ES-313-M400UA (membranes); host or cells: CHO-K1; conditions: [3H]-ketanserin displacement (n = 2); read-out: 5-HT2A pKi Mean ± SEM (converted)
# [17] = molecular target: T2, 5-HT2A; test: cell-based; design: expressed in transfected cells; host or cells: HEK293T, transient; conditions: for Emax: read-out: 5-HT2A Gq Emax (% 5-HT), BRET, mean ± SEM
# [18] = molecular target: T2, 5-HT2A; test: cell-based; design: expressed in transfected cells; host or cells: HEK293T, transient; conditions: for Emax: read-out: 5-HT2A β-arrestin Emax (% 5-HT), BRET, mean ± SEM
# [19] = system: mice; test: PCP-induced locomotor hyperactivity; assay type: in vivo, mouse; conditions: PCP 5 mg/kg IP, 25N-N1-Nap 3 mg/kg SC, M100907 0.03 mg/kg SC
# Description: (A). DOI, a hallucinogen and 5-HT2A agonist, was administered IP 10 min after SC administration of vehicle or test drug. A and then HTR activity was assessed for 30 minutes. *p<0.001, significant difference vs. vehicle (B). Vehicle or the NMDA receptor antagonist PCP (5 mg/kg) was injected IP 10 min after SC administration of vehicle or 25N-NB1-Nap (16), and then the mice were placed in the test chambers 10 min later for a 60-min assessment of locomotor activity. (C). […] Mice were treated with vehicle or M100907 (0.03 mg/kg SC) 10 min prior to vehicle or PCP (5 mg/kg IP): animals were placed in the test chambers 10 min after treatment with PCP. Animals were tested for 60 min. *p<0.01 vs. vehicle: ^#p<0.01 vs. PCP alone.
# Male C57BL/6J mice (6-8 weeks old) from Jackson Labs (Bar Harbor, ME, USA) were used for the behavioral experiments. The mice were housed on a reversed light-dark cycle (lights on at 1900 h, off at 0700 h) in an AAAC-approved vivarium at the University of California San Diego. Mice were housed up to four per cage in a climate-controlled room and with food and water provided ad libitum except during behavioral testing. Testing was performed between 1000 and 1800 h (during the dark phase of the light-dark cycle). The studies were conducted in accordance with National Institutes Health (NIH) guidelines and were approved by the University of California San Diego Institutional Animal Care and Use Committee.
# Edelfosine, DOI, R—(−)-DOI, and PCP were injected IP (5 mL/kg): 25N—NB and its derivatives were injected SC (5 mL/kg or 10 mL/kg): YM-254,890 was injected into the lateral ventricle (2 μL) over 1 min.
# The mouse behavioral pattern monitor (BPM) was used to assess locomotor activity. Each mouse BPM chamber (San Diego Instruments, San Diego, CA, USA) is a transparent Plexiglas box with an opaque 30×60 cm floor, enclosed in a ventilated isolation box. The position of the mouse in x.y coordinates is recorded by a grid of 12×24 infrared photobeams located 1 cm above the floor. A second row of 16 photobeams (parallel to the long axis of the chamber, located 2.5 cm above the floor) is used to detect rearing behavior. Holepoking behavior is detected by 11 1.4-cm holes that are situated in the walls (3 holes in each long wall, 2 holes in each short wall) and the floor ([…]); each hole is equipped with an infrared photobeam. The status of each photobeam is sampled every 55 ms and recorded for offline analysis. Locomotor activity was quantified as distance traveled, which was analyzed in 20-min blocks using a three-way ANOVA, with pretreatment and treatment as between subject variables and time as a within-subject variable. Tukey's studentized range method was used for post hoc comparisons.
# [20] = BRET, mean ± SEM, read-out: 5-HT2A Gq dissociation pEC50 (converted)
# [21] = BRET, mean ± SEM, read-out: 5-HT2A β-arrestin recruitment pEC50 (converted)
# T5 sequence (P41595 whole entry): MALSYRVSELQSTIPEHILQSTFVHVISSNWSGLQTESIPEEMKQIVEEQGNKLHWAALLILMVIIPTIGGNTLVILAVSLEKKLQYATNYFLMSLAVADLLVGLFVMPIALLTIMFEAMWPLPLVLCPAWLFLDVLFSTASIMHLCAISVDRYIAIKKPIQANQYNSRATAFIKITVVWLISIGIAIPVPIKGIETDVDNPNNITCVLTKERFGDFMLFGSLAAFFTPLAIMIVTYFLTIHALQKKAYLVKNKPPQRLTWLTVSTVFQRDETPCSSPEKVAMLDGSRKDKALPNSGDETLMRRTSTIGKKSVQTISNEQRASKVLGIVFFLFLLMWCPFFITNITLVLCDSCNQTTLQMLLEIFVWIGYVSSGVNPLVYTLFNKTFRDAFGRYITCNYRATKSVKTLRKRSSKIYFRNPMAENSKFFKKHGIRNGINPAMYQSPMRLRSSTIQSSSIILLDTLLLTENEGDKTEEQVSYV
# T2 sequence (P28223 whole entry): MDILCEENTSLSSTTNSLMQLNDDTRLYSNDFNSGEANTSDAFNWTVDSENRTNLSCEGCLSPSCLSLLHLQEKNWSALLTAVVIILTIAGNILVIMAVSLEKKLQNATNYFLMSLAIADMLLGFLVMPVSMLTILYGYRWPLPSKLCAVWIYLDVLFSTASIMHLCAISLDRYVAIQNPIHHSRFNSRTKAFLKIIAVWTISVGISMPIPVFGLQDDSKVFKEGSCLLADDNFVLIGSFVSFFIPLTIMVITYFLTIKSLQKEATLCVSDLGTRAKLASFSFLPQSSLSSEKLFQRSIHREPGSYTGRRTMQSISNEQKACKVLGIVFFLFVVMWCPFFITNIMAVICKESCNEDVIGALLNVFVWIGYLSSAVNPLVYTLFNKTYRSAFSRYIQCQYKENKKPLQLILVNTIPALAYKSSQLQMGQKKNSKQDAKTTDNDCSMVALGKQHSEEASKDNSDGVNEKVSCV
# Chain of 5-HT1D (P28221 whole entry, species assumed): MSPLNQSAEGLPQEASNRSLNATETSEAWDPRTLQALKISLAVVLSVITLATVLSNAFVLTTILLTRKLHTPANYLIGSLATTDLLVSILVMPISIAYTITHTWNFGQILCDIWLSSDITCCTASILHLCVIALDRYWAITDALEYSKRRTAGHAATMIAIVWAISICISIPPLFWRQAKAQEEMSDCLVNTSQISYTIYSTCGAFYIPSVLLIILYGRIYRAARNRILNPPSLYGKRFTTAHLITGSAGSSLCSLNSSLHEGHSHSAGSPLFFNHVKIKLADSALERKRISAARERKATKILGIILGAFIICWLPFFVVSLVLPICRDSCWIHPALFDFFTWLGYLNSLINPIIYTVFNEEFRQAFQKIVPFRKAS
# Chain of 5-HT1e (P28566 whole entry, species assumed): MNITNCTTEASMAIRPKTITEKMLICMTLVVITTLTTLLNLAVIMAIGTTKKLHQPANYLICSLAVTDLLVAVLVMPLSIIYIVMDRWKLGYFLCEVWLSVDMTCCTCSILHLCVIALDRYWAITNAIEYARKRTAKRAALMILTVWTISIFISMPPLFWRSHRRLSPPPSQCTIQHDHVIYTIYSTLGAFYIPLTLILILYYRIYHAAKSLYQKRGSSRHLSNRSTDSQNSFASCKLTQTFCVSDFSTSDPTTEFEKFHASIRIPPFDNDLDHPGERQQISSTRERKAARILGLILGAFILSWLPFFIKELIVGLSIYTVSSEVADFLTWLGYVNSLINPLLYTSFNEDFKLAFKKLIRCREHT
# Chain of 5-HT1B (P28222 whole entry, species assumed): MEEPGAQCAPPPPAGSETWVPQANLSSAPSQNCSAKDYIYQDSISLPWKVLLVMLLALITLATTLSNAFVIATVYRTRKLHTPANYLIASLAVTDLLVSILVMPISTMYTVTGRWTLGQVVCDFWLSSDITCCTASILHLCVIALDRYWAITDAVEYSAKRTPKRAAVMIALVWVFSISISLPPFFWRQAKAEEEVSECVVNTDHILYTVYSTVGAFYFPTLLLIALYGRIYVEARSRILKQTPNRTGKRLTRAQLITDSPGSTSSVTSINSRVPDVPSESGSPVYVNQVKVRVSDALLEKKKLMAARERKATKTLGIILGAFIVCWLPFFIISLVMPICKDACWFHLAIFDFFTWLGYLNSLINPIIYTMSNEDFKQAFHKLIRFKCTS
# Chain of 5-HT6 (P50406 whole entry, species assumed): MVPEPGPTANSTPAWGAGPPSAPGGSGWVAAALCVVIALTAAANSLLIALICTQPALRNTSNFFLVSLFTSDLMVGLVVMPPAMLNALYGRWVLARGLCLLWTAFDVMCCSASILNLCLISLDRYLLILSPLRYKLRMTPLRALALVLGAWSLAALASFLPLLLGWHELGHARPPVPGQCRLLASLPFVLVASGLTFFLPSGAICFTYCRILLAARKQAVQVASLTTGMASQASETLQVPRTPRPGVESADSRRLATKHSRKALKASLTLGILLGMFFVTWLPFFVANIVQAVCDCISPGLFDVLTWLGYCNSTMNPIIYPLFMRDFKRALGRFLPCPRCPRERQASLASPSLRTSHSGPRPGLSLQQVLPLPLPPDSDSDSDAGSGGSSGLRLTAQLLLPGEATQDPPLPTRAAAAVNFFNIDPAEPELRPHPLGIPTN
# Chain of 5-HT7 (P34969 whole entry, species assumed): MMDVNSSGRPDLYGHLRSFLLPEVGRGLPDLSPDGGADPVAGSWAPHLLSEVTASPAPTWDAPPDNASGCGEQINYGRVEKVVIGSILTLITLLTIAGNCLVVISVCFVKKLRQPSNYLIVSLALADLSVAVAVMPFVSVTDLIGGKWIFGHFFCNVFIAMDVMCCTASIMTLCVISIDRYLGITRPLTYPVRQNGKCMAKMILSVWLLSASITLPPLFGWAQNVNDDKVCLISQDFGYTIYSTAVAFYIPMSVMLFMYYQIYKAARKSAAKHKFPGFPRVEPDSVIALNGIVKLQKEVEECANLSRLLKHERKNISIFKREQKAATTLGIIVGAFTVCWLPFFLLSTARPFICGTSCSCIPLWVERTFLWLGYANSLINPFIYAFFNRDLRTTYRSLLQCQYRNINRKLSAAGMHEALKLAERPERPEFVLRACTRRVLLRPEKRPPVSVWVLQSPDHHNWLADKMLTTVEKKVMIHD
# Chain of 5-HT5a (P47898 whole entry, species assumed): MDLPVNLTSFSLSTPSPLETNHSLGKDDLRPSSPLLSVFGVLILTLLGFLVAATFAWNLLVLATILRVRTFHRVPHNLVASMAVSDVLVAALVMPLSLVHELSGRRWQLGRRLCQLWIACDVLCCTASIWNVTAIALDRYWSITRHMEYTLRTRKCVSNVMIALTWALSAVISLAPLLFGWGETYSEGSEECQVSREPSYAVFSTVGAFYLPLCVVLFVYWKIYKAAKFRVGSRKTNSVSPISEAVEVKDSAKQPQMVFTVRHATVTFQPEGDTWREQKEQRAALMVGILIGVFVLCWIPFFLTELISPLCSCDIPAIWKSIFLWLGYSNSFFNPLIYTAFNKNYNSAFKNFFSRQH
SMILES,Ki [16] [nM],"EC50 [17, 20] [nM]",Emax [17] [%],"EC50 [18, 21] [nM]",Emax [18] [%],further results
"COc1ccc(OC)c(CNCCc2cc(OC)c([N+](=O)[O-])cc2OC)c1 [25N-NB-2,5-DiMeO (20)]",–,–,–,–,–,"Ki [1]: > 10000 nM; Ki [2]: > 10000 nM; Ki [3]: > 10000 nM; Ki [4]: 229 nM; Ki [5]: 513 nM; Ki [6]: > 10000 nM; Ki [7]: > 10000 nM; Ki [8]: > 10000 nM; Ki [9]: > 10000 nM; 5-HT2C EC50, nM [10]: No activity; Emax ([10]; read-out: 5-HT2C Emax % 5-HT): < 10%; 5-HT2A/5-HT2c Selectivity Factor ΔLog(Emax/EC50) [11]: 5-HT2A Selective; EC50 ([12]; 5-HT2A EC50, nM, Ca2+ flux): 133 nM; Emax ([12]; read-out: 5-HT2A Emax % 5-HT, Ca2+ flux): 72 ± 1%; 5-HT2B EC50, nM [13]: No activity; Emax ([13]; read-out: 5-HT2B Emax % 5-HT): < 10%; Ki [14]: 145 nM; Ki [15]: 135 nM"
COc1cc(OC)c(OC)cc1CCNCc1cccc(C)c1O [(68)],30.9,3.24,63.4 ± 0.8,1.41,89.1 ± 2.3,–
COc1cc(OC)c(OC)cc1CCNCc1ccccc1C1CC1 [(70)],70.8,3.63,97.5 ± 1.5,6.92,116 ± 4.4,–
COc1cc(OC)c(OC)cc1CCNCc1cccc(C(C)(C)C)c1 [(71)],380,1620,38.6 ± 5,1620,60.4 ± 5.2,–
COc1cc(OC)c(OC)cc1CCNCc1cccc(I)c1F [(72)],49,33.9,60.7 ± 1.7,7.08,63.5 ± 3.2,–
"COc1cc(OC)c(OC)cc1CCNCc1cccc2c1oc1ccccc12 [(74), N-(dibenzo-[b, d]-furan-4-ylmethyl)-2-(2,4,5-trimethoxyphenyl)-ethan-1-amine]",67.6,81.3,40.2 ± 1.9,16.2,68.3 ± 3.4,–
COc1cc(OC)c(OC)cc1CCNCc1ccc(-c2ccccc2)o1 [(75)],309,–,< 10,–,50.3 ± 4.7,"5-HT2A Gq dissociation pEC50 ([17]; BRET, mean ± SEM): No activity; EC50 [18]: 891 nM"
"COc1cc(OC)c(OC)cc1CCNCc1ccc(-c2ccccc2)s1 [(76), N-((5-phenylthiophen-2-yl)methyl)-2-(2,4,5-trimethoxyphenyl)-ethan-1-amine]",447,–,57.4 ± 4.6,91.2,78 ± 4,EC50 [17]: 1070 nM
COc1cc(OC)c(OC)cc1CCNCc1ccc(-c2cccs2)s1 [(77)],324,–,49 ± 5.1,–,82.5 ± 4.2,–
COc1cc(OC)c(OC)cc1CCNCc1cccc(OCc2ccccc2)c1 [(78)],251,–,32.8 ± 4.5,–,50.3 ± 4.1,–
COc1cccc(COc2ccccc2CNCCc2cc(OC)c(OC)cc2OC)c1 [(79)],158,–,< 10,–,33 ± 4.8,"5-HT2A Gq dissociation pEC50 ([17]; BRET, mean ± SEM): No activity; EC50 [18]: 1120 nM"
COc1cc(OC)c(OC)cc1CCNCc1c[nH]nc1-c1ccccc1 [(80)],302,–,31.8 ± 2.3,79.4,102 ± 3.7,EC50 [17]: 537 nM
"COc1cccc([C@H](O)C2CCN(CCc3ccc(F)cc3)CC2)c1OC [Compound M100907, reference compound]",–,–,–,–,–,"Effect on PCP-induced locomotor hyperactivity [19]: blocks PCP induced hyperactivity; Effect on PCP-induced locomotor hyperactivity ([19]; listed as M100,907): blocked"

# — US20240254087A1, “SELECTIVE, PARTIAL, AND ARRESTIN-BIASED 5-HT2A AGONISTS WITH UTILITY IN VARIOUS DISORDERS” (Saint Joseph's University, priority 2021, published 2024)
